Among the data in patent publication US8426420B2, “Heterocyclic pyrazole-carboxamidesas P2Y12 antagonists” (Sanofi, priority 2007, dated 2013) are IC50 values, retold here.

The test system of assay [1] is human platelet rich plasma. Put plainly: Inhibition of human platelet aggregation, 96-well assay. The format is cell-based. As to conditions: Homo sapiens, Platelet, 20 min. Summed up:
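ADP-induced aggregation read as 650 nm absorbance every minute for 20 min at 37 °C, with shaking between reads. PRP (~3×E8 platelets/ml, diluted with PPP, ACD-A blood from healthy volunteers) was exposed to compound for 5 min before adding a 40 μM ADP stock (15 μl into 150 μl).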

The test system of assay [2] is human platelet rich plasma. Kind of assay: Inhibition of human platelet aggregation, "Born"-method using single cuvettes. The format is cell-based. As to conditions: 0.1 h, ADP-induced aggregation, 6 minutes. As for the experimental part: Inhibition of Human Platelet Aggregation
Alternatively to a binding assay which measures a compound's ability to bind to the P2Y12 receptor, the effect on cellular function was also determined. This ability of the compound was evaluated in two platelet aggregation assays: in 96-well plates and with the “Born”-method using single cuvettes.
Whole blood was collected from healthy volunteers using 20 ml syringes containing 2 ml of buffered Citrate. The anticoagulated whole blood was transferred into 15 ml polypropylene conical tubes (10 ml per tube). The tubes were centrifuged for 15 minutes at 340×g at RT without using the centrifuge brake. This procedure leads to a pellet of cellular components and a supernatant of platelet rich plasma (PRP). The PRP layer was collected from each tube and pooled for each donor. To avoid carry over of cellular components following centrifugation, approximately 5 ml of PRP was left in the tube. The platelet concentration was determined using a Coulter Counter.
The 15 ml tubes containing the pellet of cellular components were centrifuged again for 10 minutes at 1940×g. This pelleted out most particulate blood constituents remaining, leaving a layer of Platelet Poor Plasma (PPP). The PPP was collected for each donor. The PRP layer, previously set aside, was diluted with PPP to a final concentration of approximately 3×E8 platelets/ml with the PPP.
The human platelet aggregation assay is performed in single use cuvettes using the platelet aggregation profiler (PAP-4 or -8, Bio/Data corporation).
In the assay cuvette 4 μl of test compound at 100× final concentration in DMSO is mixed with 392 μl fresh PRP and incubated for 2 minutes at 37° C. with 1.200 rpm stirring. Following that incubation period, 4 μl of 250 μM ADP is added to the reaction mix. This addition of ADP is sufficient to induce aggregation in the absence of an inhibitor. After that aggregation is measured over 6 minutes at 37° C. with 1.200 rpm stirring. Results of the assay are expressed as % inhibition, and are calculated using maximum aggregation (Tmax) or area under curve (AUC) of the absorbance over 6 minutes.
The IC50 data of the above described platelet aggregation assay using human platelet rich plasma for exemplary compounds of the present invention are shown in table 3.

The next assay concerns the target human P2Y12 receptor (Homo sapiens, UniProt Q9H244). Kind of assay: Human P2Y12 recombinant cell membrane binding assay with 33P 2MeS-ADP. The following applies: competition against 33P 2MeS-ADP, membranes of CHO cells with recombinant human P2Y12 receptor. Summed up:
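CHO membranes expressing human P2Y12 (20 μg/ml stock) preincubated 15 min at RT with compound in HEPES pH 7.4 buffer, then 33P 2MeS-ADP (1.61 nM working solution) added for 20 min at RT. Bound label filtered and counted; four-point, five-fold series from 10 μM final, triplicate, four-parameter fit.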

human P2Y12 receptor, sequence (Q9H244 whole entry): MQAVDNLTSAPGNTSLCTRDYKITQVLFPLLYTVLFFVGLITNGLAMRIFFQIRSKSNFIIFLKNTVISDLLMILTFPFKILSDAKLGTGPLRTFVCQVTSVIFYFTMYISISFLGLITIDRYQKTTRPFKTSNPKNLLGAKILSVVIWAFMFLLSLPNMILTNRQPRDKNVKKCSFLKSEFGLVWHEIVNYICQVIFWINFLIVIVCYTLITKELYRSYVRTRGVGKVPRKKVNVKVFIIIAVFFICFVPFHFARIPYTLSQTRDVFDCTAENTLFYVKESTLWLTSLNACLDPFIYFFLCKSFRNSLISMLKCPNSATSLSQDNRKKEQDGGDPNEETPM

The term IC50 denotes the concentration that inhibits the measured activity by half. As to `CCOC(=O)N1CCN(C(=O)[C@H](CCC(=O)O)NC(=O)c2cc(OCC(=O)N3CCC[C@H]3C(=O)NC3CC3)n(-c3ccccc3)n2)CC1` [Example 1, 4-[(S)-4-Carboxy-2-({5-[2-((S)-2-cyclopropylcarbamoyl-pyrrolidin-1-yl)-2-oxo-ethoxy]-1-phenyl-1H-pyrazole-3-carbonyl}-amino)-butyryl]-piperazine-1-carboxylic acid ethyl ester], the IC50 amounted to 10 nM in assay [1], 210 nM in assay [2] and 270 nM at human P2Y12 receptor.
With `CCOC(=O)N1CCN(C(=O)[C@H](CCC(=O)O)NC(=O)c2cc(OCC(=O)N3CCC[C@H]3C(=O)NCC(F)(F)F)n(-c3ccccc3)n2)CC1` [Example 2, 4-{(S)-4-Carboxy-2-[(5-{2-oxo-2-[(S)-2-(2,2,2-trifluoroethyl-carbamoyl)pyrrolidin-1-yl]-ethoxy}-1-phenyl-1H-pyrazole-3-carbonyl)-amino]-butyryl}-piperazine-1-carboxylic acid ethyl ester], the IC50 turned out to be 11 nM in assay [2] and 120 nM on human P2Y12 receptor.
Consider `CCCNC(=O)[C@@H]1CCCN1C(=O)COc1cc(C(=O)N[C@@H](CCC(=O)O)C(=O)N2CCN(C(=O)OCC)CC2)nn1-c1ccccc1` [Example 9, 4-{(S)-4-Carboxy-2-[(5-{2-[(S)-2-propylcarbamoyl-pyrrolidin-1-yl]-2-oxo-ethoxy}-1-phenyl-1H-pyrazole-3-carbonyl)-amino]-butyryl}-piperazine-1-carboxylic acid ethyl ester], for which the IC50 in assay [1] worked out at 60 nM; in assay [2], 91 nM; at human P2Y12 receptor it was 172 nM.
Consider `CCOC(=O)N1CCN(C(=O)[C@H](CCC(=O)O)NC(=O)c2cc(OCC(=O)N3CCC[C@H]3C(=O)NC(C)C)n(-c3ccccc3)n2)CC1` [Example 10, 4-{(S)-4-Carboxy-2-[(5-{2-[(S)-2-isopropylcarbamoyl-pyrrolidin-1-yl]-2-oxo-ethoxy}-1-phenyl-1H-pyrazole-3-carbonyl)-amino]-butyryl}-piperazine-1-carboxylic acid ethyl ester], for which the IC50 in assay [2] is 340 nM; on human P2Y12 receptor, 146 nM.
Regarding `CCOC(=O)N1CCN(C(=O)[C@H](CCC(=O)O)NC(=O)c2cc(OCC(=O)N3CCC[C@H]3C(=O)NC(C)(C)C)n(-c3ccccc3)n2)CC1` [Example 12, 4-{(S)-4-Carboxy-2-[(5-{2-[(S)-2-tert-butylcarbamoyl-pyrrolidin-1-yl]-2-oxo-ethoxy}-1-phenyl-1H-pyrazole-3-carbonyl)-amino]-butyryl}-piperazine-1-carboxylic acid ethyl ester], the results for the IC50 (in assay [1]; in assay [2]; at human P2Y12 receptor) were 20 nM, 70 nM and 107 nM, respectively.
On the same counts, the results for `CCOC(=O)N1CCN(C(=O)[C@H](CCC(=O)O)NC(=O)c2cc(OCC(=O)N3CCC[C@H]3C(=O)NCC(F)F)n(-c3ccccc3)n2)CC1` [Example 15, 4-{(S)-4-Carboxy-2-[(5-{2-[(S)-2-(2,2-difluoro-ethylcarbamoyl)-pyrrolidin-1-yl]-2-oxo-ethoxy}-1-phenyl-1H-pyrazole-3-carbonyl)-amino]-butyryl}-piperazine-1-carboxylic acid ethyl ester] are 130 nM, 120 nM and 164 nM.
`CCOC(=O)N1CCN(C(=O)[C@H](CCC(=O)O)NC(=O)c2cc(OCC(=O)N3CCC[C@H]3C(=O)NCC3CCC3)n(-c3ccccc3)n2)CC1` [Example 20, 4-{(S)-4-Carboxy-2-[(5-{2-[(S)-2-(cyclobutylmethyl-carbamoyl)-pyrrolidin-1-yl]-2-oxo-ethoxy}-1-phenyl-1H-pyrazole-3-carbonyl)-amino]-butyryl}-piperazine-1-carboxylic acid ethyl ester]: the IC50 was 100 nM in assay [1], 72 nM in assay [2] and 50 nM at human P2Y12 receptor.
For `CCOC(=O)N1CCN(C(=O)[C@H](CCC(=O)O)NC(=O)c2cc(OC(C)C(=O)N3CCC[C@H]3C(=O)NCC(F)(F)F)n(-c3ccccc3)n2)CC1` (stereo partly drawn) [Example 53, 4-{(S)-4-Carboxy-2-[(5-{1-methyl-2-oxo-2-[(S)-2-(2,2,2-trifluoro-ethylcarbamoyl)-pyrrolidin-1-yl]-ethoxy}-1-phenyl-1H-pyrazole-3-carbonyl)-amino]-butyryl}-piperazine-1-carboxylic acid ethyl ester], in that order: 30 nM, 39 nM and 129 nM.
For `CCOC(=O)N1CCN(C(=O)[C@H](CC(=O)O)NC(=O)c2cc(OCC(=O)N3CCC[C@H]3C(=O)NCC3CC3)n(-c3ccccc3)n2)CC1` [Example 55, 4-{(S)-3-Carboxy-2-[(5-{2-[(S)-2-(cyclopropylmethyl-carbamoyl)-pyrrolidin-1-yl]-2-oxo-ethoxy}-1-phenyl-1H-pyrazole-3-carbonyl)-amino]-propionyl}-piperazine-1-carboxylic acid ethyl ester], in that order: 20 nM, 60 nM and 70 nM.
On to `CCOC(=O)N1CCN(C(=O)[C@H](CCC(=O)O)NC(=O)c2cc(O[C@H](C)C(=O)N3CCC[C@H]3C(=O)NCC3CC3)n(-c3ccccc3)n2)CC1` [Example 63, 4-[(S)-4-Carboxy-2-({5-[(R)-2-((S)-2-cyclopropylmethylcarbamoyl-pyrrolidin-1-yl)-1-methyl-2-oxo-ethoxy]-1-phenyl-1H-pyrazole-3-carbonyl}-amino)-butyryl]-piperazine-1-carboxylic acid ethyl ester], for which the IC50 worked out at 20 nM in assay [2] and 41 nM on human P2Y12 receptor.
In the case of `CCOC(=O)N1CCN(C(=O)[C@H](CCC(=O)O)NC(=O)c2cc(O[C@H](C)C(=O)N3CCC[C@H]3C(=O)NCC(F)(F)F)n(-c3ccccc3)n2)CC1` [Example 65, 4-[(S)-4-Carboxy-2-({5-[(R)-2-((S)-2-(2,2,2-trifluoroethylcarbamoyl)-pyrrolidin-1-yl)-1-methyl-2-oxo-ethoxy]-1-phenyl-1H-pyrazole-3-carbonyl}-amino)-butyryl]-piperazine-1-carboxylic acid ethyl ester], the IC50 in assay [2] is 120 nM; at human P2Y12 receptor, 55 nM.
On the same counts, the results for `CCCCOC(=O)N1CCN(C(=O)[C@H](CCC(=O)O)NC(=O)c2cc(OCC(=O)N3CCC[C@H]3C(=O)N(C)C3CCC3)n(-c3ccccc3)n2)CC1` [Example 124, 4-{(S)-4-Carboxy-2-[(5-{2-[(S)-2-(cyclobutyl-methyl-carbamoyl)-pyrrolidin-1-yl]-2-oxo-ethoxy}-1-phenyl-1H-pyrazole-3-carbonyl)-amino]-butyryl}-piperazine-1-carboxylic acid butyl ester] are 20 nM and 71 nM.
Consider `CCCCOC(=O)N1CCN(C(=O)[C@H](CCCO)NC(=O)c2cc(OCC(=O)N3CCC[C@H]3C(=O)NC3CCC3)n(-c3ccccc3)n2)CC1` [Example 178, 4-[(S)-2-({5-[2-((S)-2-Cyclobutylcarbamoyl-pyrrolidin-1-yl)-2-oxo-ethoxy]-1-phenyl-1H-pyrazole-3-carbonyl}-amino)-5-hydroxy-pentanoyl]-piperazine-1-carboxylic acid butyl ester], for which the IC50 in assay [2] was found to be 70 nM; at human P2Y12 receptor, 17 nM.
Turning to `CCCCOC(=O)N1CCN(C(=O)[C@H](CF)NC(=O)c2cc(OCC(=O)N3CCC[C@H]3C(=O)NC3CCC3)n(-c3ccccc3)n2)CC1` [Example 262, 4-[(R)-2-({5-[2-((S)-2-Cyclobutylcarbamoyl-pyrrolidin-1-yl)-2-oxo-ethoxy]-1-phenyl-1H-pyrazole-3-carbonyl}-amino)-3-fluoro-propionyl]-piperazine-1-carboxylic acid butyl ester], the values for the IC50 in assay [1] and in assay [2] were 30 nM and 40 nM, respectively.
Take `CCCCOC(=O)N1CCN(C(=O)CNC(=O)c2cc(O[C@H](C)C(=O)N3CCC[C@H]3C(=O)NC3CCC3)n(-c3ccccc3)n2)CC1` [Example 269, 4-[2-({5-[(R)-2-((S)-2-Cyclobutylcarbamoyl-pyrrolidin-1-yl)-1-methyl-2-oxo-ethoxy]-1-phenyl-1H-pyrazole-3-carbonyl}-amino)-acetyl]-piperazine-1-carboxylic acid butyl ester]: the IC50 in assay [2] was determined as 50 nM; on human P2Y12 receptor it was 3 nM.
